Reference: patent US9822373B2, “Mutant cells for protein secretion and lignocellulose degradation” (The Regents of the University of California, priority 2011, dated 2017)

How the values were obtained:
[1] = system: cellobiohydrolase I (cbh-1, NCU07340); assay: Quantitative RT-PCR of cbh-1 expression after 4 h induction with a carbon source; assay type: cell-based, Neurospora crassa
Protocol: (§1) Strains were inoculated at an OD595 equal to 0.05 in 50 ml Vogel's salts with 2% (wt/vol) sucrose in a 250 ml Erlenmeyer flask and grown under constant light at 200 rpm for 16 hours. The biomass was then spun at 4000 rpm for 10 minutes and washed in Vogel's twice to remove any excess sucrose. The biomass was then added to a new 50 ml culture with 2% (wt/vol) sucrose, cellobiose (Sigma) or Avicel® PH 101 (Avicel®). Cultures were induced for 4 hours under constant light at 200 rpm. The culture biomass was then harvested by filtration over a Whatman glass microfiber filter (GF/F) on a Buchner funnel and washed with 50 ml Vogel's, biomass was flash frozen in liquid Nitrogen and stored at −80° C.
(§2) Total RNA from frozen samples was isolated using Zirconia/Silica beads (0.2 g, 0.5 mm diameter; Biospec) and a Mini-Beadbeater-96 (Biospec) with 1 mL TRIzol reagent (Invitrogen) according to manufacturer's instructions. Total RNA was further purified by digestion with TURBO DNA-free (Ambion) and an RNeasy kit (Qiagen). RNA integrity was checked by Nanodrop and agarose gel electrophoresis.
Quantitative RT-PCR was performed using the EXPRESS One-Step SYBR GreenER Kit (Invitrogen) and the StepOnePlus Real-Time PCR System (Applied Biosystems). Reactions were performed in triplicate with a total reaction volume of 10 ul including 300 nM each forward and reverse primers and 75 ng template RNA. Data Analysis was performed by the StepOne Software (Applied Biosystems) using Relative Quantitation/Comparative CT (ΔΔCT). Data was normalized to the endogenous control actin with expression on sucrose as the reference sample. Error bars indicate a 95% confidence interval. The RT-PCR primers were used as described in (Tian et al., 2009).
Conidia from strains were inoculated at an OD595 equal to 0.05 in 50 ml Vogel's salts (45) with 2% w/v sucrose in a 250 ml Erlenmeyer flask and grown under constant light at 200 rpm for 16 hours. Biomass was then spun at 4200 rpm for 10 minutes and washed in Vogel's salts twice to remove any excess sucrose. Biomass was then added to a new flask containing 50 ml Vogel's salts supplemented with 1% w/v sucrose, 0.2% w/v cellobiose (Sigma) or 1% w/v Avicel® PH 101 (Sigma). Cultures were induced for 4 hrs under constant light at 200 rpm. The culture biomass was then harvested by filtration over a Whatman glass microfiber filter (GF/F) on a Buchner funnel and washed with 50 ml Vogel's salts. […] Three independent biological duplicates (flasks) were evaluated for each time point. […]
(§3) Quantitative RT-PCR was performed using the EXPRESS One-Step SYBR GreenER Kit (Invitrogen) and the StepOnePlus Real-Time PCR System (Applied Biosystems). […] Data Analysis was performed by the StepOne Software (Applied Biosystems) using the Relative Quantitation/Comparative CT (ΔΔCT) setting. […]

[2] = system: cellulase genes (cbh-1, gh5-1, gh6-2); assay: Quantitative RT-PCR, cellulase gene expression stated for the genes together; assay type: cell-based, Neurospora crassa
Protocol: Conidia from strains were inoculated at an OD595 equal to 0.05 in 50 ml Vogel's salts (45) with 2% w/v sucrose in a 250 ml Erlenmeyer flask and grown under constant light at 200 rpm for 16 hours. Biomass was then spun at 4200 rpm for 10 minutes and washed in Vogel's salts twice to remove any excess sucrose. […] Cultures were induced for 4 hrs under constant light at 200 rpm. The culture biomass was then harvested by filtration over a Whatman glass microfiber filter (GF/F) on a Buchner funnel and washed with 50 ml Vogel's salts. The biomass was flash frozen in liquid nitrogen and stored at −80° C. Three independent biological duplicates (flasks) were evaluated for each time point.
Total RNA from frozen samples was isolated using Zirconia/Silica beads (0.5 mm diameter; Biospec) and a Mini-Beadbeater-96 (Biospec) with 1 mL TRIzol reagent (Invitrogen) according to the manufacturer's instructions. The total RNA was further purified by digestion with TURBO DNA-free (Ambion) and an RNeasy kit (Qiagen). RNA concentration and integrity was checked by Nanodrop and agarose gel electrophoresis.
Quantitative RT-PCR was performed using the EXPRESS One-Step SYBR GreenER Kit (Invitrogen) and the StepOnePlus Real-Time PCR System (Applied Biosystems). Reactions were performed in triplicate with a total reaction volume of 10 μl including 300 nM each forward and reverse primers and 75 ng template RNA. Data Analysis was performed by the StepOne Software (Applied Biosystems) using the Relative Quantitation/Comparative CT (ΔΔCT) setting. Data was normalized to the endogenous control actin with expression on sucrose as the reference sample.

[3] = system: Exoglucanase (Cellobiohydrolase I); assay: MuLac (4-Methylumbelliferyl β-D-cellobioside) exoglucanase activity of culture supernatant; assay type: cell-based, Neurospora crassa; conditions: for MuLac activity: triple β-glucosidase deletion
Protocol: (§4) Strains were inoculated at an OD595 equal to 0.05 in 100 ml Vogel's salts with 1% (wt/vol) sucrose in a 250 ml Erlenmeyer flask and grown under constant light at 200 rpm for 24 hours. Cultures were then induced with 2% sucrose, 2% cellobiose, 1% sucrose/1% cellobiose, or 1% sucrose/1% Avicel®. Cultures continued to grow under constant light at 200 rpm for 5 days with supernatant collected at 1, 2, 3, 4 and 5 day. The collected supernatant was filtered through a 0.2 μm PES filter to remove biomass before being stored at −20° C. until all samples were collected. To visualize the secreted proteins, 15 μl of unconcentrated supernatant was run on a Criterion 10% Tris-HCL polyacrylamide gel and stained with Thermo Scientific GelCode Blue Stain Reagent.
Exoglucanase (Cellobiohydrolase I) activity was measured using a 4-Methylumbelliferyl β-D-cellobioside (MuLac) assay. This assay mainly measures the activity of CBH-1 and activity is expressed as the change in fluorescence over time resulting in the slope of a best-fit line as an indication of enzyme activity. Prior to performing this assay, any excess sugars in the culture supernatant were removed by passing the supernatant over a 5,000 Dalton concentrator (sartorius stedim Vivaspin 500). Retained proteins were washed twice with 50 mM sodium acetate pH 5 and diluted to 2 μg/μl to assure that the assay remained in the linear range. […] The assay was performed in a Beckman Coulter Paradigm plate reader set at 40° C. with excitation/emission wavelengths of 360/465 nm with readings every 30 seconds for 10 minutes. The slope of the best-fit line represents the MuLac activity for an individual culture supernatant. The MuLac activity is normalized to the initial dilution required to obtain a 2 μg/μl concentration in order to represent the undiluted activity. The activity of recombinant cellobiohydrolase-1 was used as a standard and data is presented as a percentage of the wild type activity on Avicel® after 4 days.

cbh-2 / gh6-2 (NCU09680) = assay: Quantitative RT-PCR of cbh-2/gh6-2 expression after 4 h induction with a carbon source; assay type: cell-based, Neurospora crassa
Protocol: as §1, §2
Quantitative RT-PCR was performed using the EXPRESS One-Step SYBR GreenER Kit (Invitrogen) and the StepOnePlus Real-Time PCR System (Applied Biosystems). Reactions were performed in triplicate with a total reaction volume of 10 ul including 300 nM each forward and reverse primers and 75 ng template RNA. Data Analysis was performed by the StepOne Software (Applied Biosystems) using Relative Quantitation/Comparative CT (ΔΔCT). […]
Conidia from strains were inoculated at an OD595 equal to 0.05 in 50 ml Vogel's salts (45) with 2% w/v sucrose in a 250 ml Erlenmeyer flask and grown under constant light at 200 rpm for 16 hours. […] Three independent biological duplicates (flasks) were evaluated for each time point. […]
as §3

Neurospora crassa = assay: Secreted protein concentration in shake flask culture supernatant; assay type: cell-based; conditions: Δcre-1; time not stated
Protocol: as §4

[4] = WT strain, 2% carbon source, 4 h induction
[5] = triple β-glucosidase mutant, 2% carbon source, 4 h induction
[6] = Δcre-1 strain, shifted from sucrose to 0.2% cellobiose for 4 hrs

SMILES: O=C[C@H](O)[C@@H](O)[C@H](O[C@@H]1O[C@H](CO)[C@@H](O)[C@H](O)[C@H]1O)[C@H](O)CO [cellobiose]
- induction for cbh-1 compared to relative expression on sucrose [1, 4]: 20 fold
- cbh-1 increase in relative expression over expression on sucrose [1, 5]: 6,500 fold
- increase in transcription of cbh-1 above expression on sucrose in the same strain ([1]; Δcre-1 strain, 4 h induction (Example 1)): 600 fold
- induction of cbh-1 [1, 6]: 3,000 fold
- induction of cbh-1, gh6-2, or gh5-1 expression ([2]; individual β-glucosidase deletion strains (Δgh1-1, Δgh3-3 or Δgh3-4), 4 hr induction, 0.2%): did not show a significant induction
- induction of lignocellulolytic genes ([2]; wild-type N. crassa (WT) grown on the substance as sole carbon source): not induced
- cellulase gene induction ([2]; Δgh1-1Δgh3-3 double mutant, 4 hr induction, 0.2%): showed some cellulase gene induction
- MuLac activity ([3]; 4 days): 4.84 μg CBHI equivalent
- MuLac activity ([3]; two days): 1.4 μg recombinant CBHI
- MuLac activity (CBHI equivalent produced) ([3]; triple β-glucosidase/Δcre-1 deletion strain, four days): more than 11 μg CBHI equivalent
- activity towards MuLac ([3]; Δcre-1, time not stated): 0.8 µg
- cbh-2 relative expression compared to sucrose (cbh-2 / gh6-2 (NCU09680); [4]): no change
- cbh-2 increase in relative expression over expression on sucrose (cbh-2 / gh6-2 (NCU09680); [5]): 2,100 fold
- induction of gh6-2 (cbh-2 / gh6-2 (NCU09680); [6]): 85 fold
- cellulase secretion (secreted protein) (Neurospora crassa): 653 µg/mL
